Data from patent US20250042918A1, “COMPOUNDS” (Fundación Del Sector Públlco Estatal Centro Nacional De …, priority 2021, published 2025).

Legend:
BT-474 = test: In vitro potency against breast cancer cell lines (CellTiter Glo); assay type: cell-based; settings: Homo sapiens, BT-474, 72 h; read-out: absolute IC50 BT-474
Experimental: (§1) To prepare the complete medium FBS and appropriate additives were added according to the information sheet provided by the vendor and mixed gently. The cell name and complete medium and passage number marked on the flask were checked, and the culture medium removed and discarded using a vacuum pump. […] 3.0 ml of Trypsin-EDTA solution was added to the flask and the cells observed under an inverted microscope until cell layer is dispersed. 8.0 ml of complete growth medium was added and the cells aspirated by gently pipetting. The cell suspension was transferred to a centrifuge tube and centrifuged at 800-1000 rpm for 3-5 minutes. The supernatant was discarded using a vacuum pump, and an appropriate volume of complete medium added. The cell pellet was suspended by gently pipetting, and the cell numbers counted with Vi-cell XR and the cells adjusted to appropriate density. 100 μL of cell suspension to 96-well opaque-walled clear bottom plates was added according to the planned plate layout and the plates placed in the CO2 incubator overnight.
(§2) c. […] Meanwhile the day 0 plate was measured by Cell TiterGlo as listed below.
(§3) d. Cells were incubated with the compounds for 72 h at 5% CO2, 37° C.
(§4) The CellTiter-Glo buffer was thawed and equilibrated to room temperature prior to use. The lyophilized CellTiter-Glo substrate was equilibrated to room temperature prior to use. The appropriate volume of CellTiter-Glo buffer was transferred into the amber bottle containing CellTiter-Glo substrate to reconstitute the lyophilized enzyme/substrate mixture, thereby forming the CellTiter-Glo reagent. Mixing was carried out by gently vortexing, swirling or by inverting the contents to obtain a homogeneous solution, the CellTiter-Glo substrate going into solution easily in less than one minute.
(§5) The plate and its contents were equilibrated to room temperature for approximately 30 minutes, after which 100 μL of CellTiter-Glo reagent was added to the assay plate by Multidrop Combi instrument and the contents mixed for 10 minutes on an orbital shaker to induce cell lysis. The plate was allowed to incubate at room temperature for 10 minutes to stabilize luminescent signal and the clear bottom pasted with white back seal and the luminescence recorded with Enspire with the settings: Luminescence, measurement time 0.1 ms.

HCC1143 = test: as above; assay type: cell-based; settings: Homo sapiens, HCC1143, 72 h; read-out: absolute IC50 HCC1143
Experimental: as §1, §2, §3, §4, §5

T-47D = test: as above; assay type: cell-based; settings: Homo sapiens, T47D, 72 h; read-out: absolute IC50 T-47D
Experimental: as §1, §2, §3, §4, §5

KG-1 = test: In vitro potency against leukemia cell lines (CellTiter Glo); assay type: cell-based; settings: Homo sapiens, 72 hours, read-out: absolute IC50 KG-1
Experimental: as §1, §2, §3, §5
(§6) In all cases, the incubation time was 72 hours and the cell lines were grown as a suspension. The seeding density was […] in a 96 well plate.

OCI-M1 = test: as above; assay type: cell-based; settings: 72 hours, read-out: absolute IC50 OCI-M1
Experimental: as §1, §2, §3, §5, §6

DU145 = test: Combination antiproliferation with Example 1; assay type: cell-based; design: key to Synergy: ++++ indicates a very strong synergistic effect; +++ a strong synergistic effect; ++ a synergistic effect; settings: agent in combination with Example 1, DU145, Prostate Cancer
Experimental: (§7) The cells were harvested just before reaching confluency, counted with a haemocytometer and diluted with media. Cells were then seeded in 96-well microtiter plates at a density of 4,000 cells/well. […] Compounds were weighed out and diluted with DMSO to a final concentration of 10 mM. From here a “mother plate” with serial dilutions was prepared at 200× the final concentration in the culture. The final concentration of DMSO in the tissue culture media should not exceed 0.5%. The appropriate volume of the compound solution (2 μl) was added automatically (Beckman FX 96 tip) to 0.2 ml media to make it up to the final concentration for each drug. Each concentration was assayed in duplicate. Cells were exposed to the compounds for 72 h and then processed for CellTiter-Glo® Luminescent Cell Viability Assay (Promega) read out according to manufacturer's Instruction and read on EnVision (Perkin Elmer). GI50 values were calculated using ActivityBase from IDBS. […] A combination index score was calculated by the Chou and Talalay method (CalcuSyn software, Biosoft). The combination partner compounds were as follows: • the PI3K inhibitor pictisilib (GDC-0941); • the MEK inhibitor merdametinib (PD-0325901); and the EGFR and ErbB2 inhibitor lapatinib

HT29 = test: Combination antiproliferation with Example 1; assay type: cell-based; design: key to Synergy: ++++ indicates a very strong synergistic effect; +++ a strong synergistic effect; ++ a synergistic effect; settings: agent in combination with Example 1, HT29, Colon Cancer
Experimental: as §7

SKMEL19 = test: Combination antiproliferation with Example 1; assay type: cell-based; design: key to Synergy: ++++ indicates a very strong synergistic effect; +++ a strong synergistic effect; ++ a synergistic effect; settings: agent in combination with Example 1, SKMEL19, Melanoma
Experimental: as §7

PIM-1 = target: T1, PIM-1 (Homo sapiens, UniProt P11309); test: Protein PIM kinase assay (ADP Hunter Plus); assay type: biochemical; settings: 100 μM ATP, 100 μM PIMtide
T1 construct: made in house
T1 sequence (P11309 whole entry): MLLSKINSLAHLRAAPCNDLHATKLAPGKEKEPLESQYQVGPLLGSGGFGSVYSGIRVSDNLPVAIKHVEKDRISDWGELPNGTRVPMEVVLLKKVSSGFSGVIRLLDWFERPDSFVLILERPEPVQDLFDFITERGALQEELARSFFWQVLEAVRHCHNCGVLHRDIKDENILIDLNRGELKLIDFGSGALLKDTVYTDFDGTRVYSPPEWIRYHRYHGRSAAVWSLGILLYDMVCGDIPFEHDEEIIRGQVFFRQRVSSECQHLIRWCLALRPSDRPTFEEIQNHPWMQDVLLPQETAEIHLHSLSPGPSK
Experimental: (§8) PIM kinase activities were measured by using the commercial ADP Hunter™ Plus assay (DiscoveRx Ref. #33-016), a homogeneous assay measuring ADP accumulation, as a universal product of kinase activity. PIM-1 and PIM-2 proteins were obtained by purification as it is described by Martinez-Gonzalez et. al. Eur. J. Med Chem. 2019, 168, 87-109 and PIM-3 was acquired from Millipore (Cat #14-738). The assay was done following general manufacturer recommendations and adapting protein and substrates concentrations to optimal conditions. Kinase buffer was 15 mM HEPES, pH 7.4, 20 mM NaCl, 1 mM EGTA, 0.02% Tween-20, 10 mM MgCl2 and 0.1 mg/mL LBGG (bovine y-globulin). All PIM kinases assays were done at 100 μM PIM tide (ARKRRRHPSGPPTA), as peptide substrate, and 100 μM ATP. Protein concentration was 50, 350 and 200 pg/μl for PIM-1, 2 and 3, respectively. In order to calculate the IC50 of described compounds, serial 1:3 dilutions were prepared and the reaction started by addition of ATP. Incubation was done for 1 h at 25° C. Reagents A and B (DiscoveRx) were sequentially added to the wells and plates were incubated for 30 min at 37° C. Fluorescence counts were read in a Victor instrument (Perkin Elmer) with the recommended settings (544 and 580 nm as excitation and emission wavelengths, respectively). Values were plot against inhibitor concentration and fit to a sigmoid dose-response curve using Activity Base software from IDBS.

PIM-2 = target: T2, PIM-2 (Homo sapiens, UniProt Q9P1W9); test: Protein PIM kinase assay (ADP Hunter Plus); assay type: biochemical; settings: 100 μM ATP, 100 μM PIMtide
T2 construct: made in house
T2 sequence (Q9P1W9 whole entry): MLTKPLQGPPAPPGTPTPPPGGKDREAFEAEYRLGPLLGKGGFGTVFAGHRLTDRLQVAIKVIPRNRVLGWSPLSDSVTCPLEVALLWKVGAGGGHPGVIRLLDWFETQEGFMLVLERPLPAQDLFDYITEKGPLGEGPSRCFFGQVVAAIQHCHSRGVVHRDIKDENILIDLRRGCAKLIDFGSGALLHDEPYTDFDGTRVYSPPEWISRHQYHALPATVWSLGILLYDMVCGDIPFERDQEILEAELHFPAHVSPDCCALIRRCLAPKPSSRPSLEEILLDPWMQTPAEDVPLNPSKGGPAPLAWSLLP
Experimental: as §8

PIM-3 = target: T3, PIM-3 (Homo sapiens, UniProt Q86V86); test: Protein PIM kinase assay (ADP Hunter Plus); assay type: biochemical; settings: 100 μM ATP, 100 μM PIMtide
T3 construct: purchased Millipore 14-738
Experimental: as §8

[1] = test system: BAD S112 phosphorylation in H1299 cells overexpressing PIM-1 (H1299Pim1); test: BAD S112 phosphorylation inhibition assay (in Cell ELISA); assay type: cell-based; settings: Homo sapiens, NCI-H1299, 4 hours, medium without FBS, read-out: BAD PH 1299PIM 1 ELIWO
Experimental: The efficacy of the compounds of the invention on the inhibition of BAD phosphorylation was measured by an in Cell ELISA.
Materials: H1299 cells overexpressing PIM-1 (H1299Pim1). DMSO Plates: 96-well-Polystyrene, Untreated, Round-Bottom plates from Costar (Cat #3797). Cell Plates: 96-Flat bottom biocoated with Poly-D-Lysin plates with lid from Becton Dickinson (Cat #354651). Cell Culture Medium: DMEM high glucose, 10% Fetal Bovine Serum, 2 mM L-Glutamine, P/S. Antibodies: phospho BAD S112 antibody from Cell Signaling (cat. #9291S), anti-rabbit conjugated with peroxidase from Amersham (cat. #3619). Reagent: SuperSignal ELISA femto from Pierce (cat. #1001110).
Procedure: Cells were seeded in 15000 cells per 200 μl per well into 96-well plates and incubated for 16 h at 37° C., 5% CO2. On day two, nine serial 1:2 compound dilutions were made in DMSO in a 96-well plate. The compounds were added to duplicate wells in 96-well cell plates using a FX BECKMAN robot (Beckman Coulter) and were incubated at 37° C. under CO2 atmosphere in medium without fetal bovine serum (FBS). After 4 hours, relative levels of BAD S112 phosphorylation were measured in Cell ELISA using SuperSignal ELISA Femto substrate (Pierce) and read on VICTOR (Perkin Elmer). EC50 values were calculated using ActivityBase from IDBS.

A549 = test: Combination antiproliferation with Example 1; assay type: cell-based; design: key to Synergy: ++++ indicates a very strong synergistic effect; +++ a strong synergistic effect; ++ a synergistic effect; settings: agent in combination with Example 1, A549, Lung Cancer
Experimental: (§9) The cells were harvested just before reaching confluency, counted with a haemocytometer and diluted with media. Cells were then seeded in 96-well microtiter plates at a density of 4,000 cells/well. Cells were incubated for 24 hours before adding the compounds.
(§10) Compounds were weighed out and diluted with DMSO to a final concentration of 10 mM. From here a “mother plate” with serial dilutions was prepared at 200× the final concentration in the culture. The final concentration of DMSO in the tissue culture media should not exceed 0.5%. The appropriate volume of the compound solution (2 μl) was added automatically (Beckman FX 96 tip) to 0.2 ml media to make it up to the final concentration for each drug.
(§11) Each concentration was assayed in duplicate. Cells were exposed to the compounds for 72 h and then processed for CellTiter-Glo® Luminescent Cell Viability Assay (Promega) read out according to manufacturer's Instruction and read on EnVision (Perkin Elmer). GI50 values were calculated using ActivityBase from IDBS.
(§12) A combination index score was calculated by the Chou and Talalay method (CalcuSyn software, Biosoft).

HCT116 = test: Combination antiproliferation with Example 1; assay type: cell-based; design: key to Synergy: ++++ indicates a very strong synergistic effect; +++ a strong synergistic effect; ++ a synergistic effect; settings: agent in combination with Example 1, HCT116, Colon Cancer
Experimental: as §9, §10, §11, §12

Jeko-1 = test: Combination antiproliferation with Example 1; assay type: cell-based; design: key to Synergy: ++++ indicates a very strong synergistic effect; +++ a strong synergistic effect; ++ a synergistic effect; settings: agent in combination with Example 1, Jeko-1, Mantle Cell Lymphoma
Experimental: as §9, §10, §11, §12

T47D = test: Combination antiproliferation with Example 1; assay type: cell-based; design: key to Synergy: ++++ indicates a very strong synergistic effect; +++ a strong synergistic effect; ++ a synergistic effect; settings: agent in combination with Example 1, T47D, Breast Cancer
Experimental: as §9, §10, §11, §12

U87MG = test: Combination antiproliferation with Example 1; assay type: cell-based; design: key to Synergy: ++++ indicates a very strong synergistic effect; +++ a strong synergistic effect; ++ a synergistic effect; settings: agent in combination with Example 1, U87MG, Glioblastoma
Experimental: as §9, §10, §11, §12

Row | Compound | C.I. (combination index) (DU145) | Synergy (DU145) | C.I. (combination index) (SKMEL19) | Synergy (SKMEL19) | IC50 (PIM-1) [nM] | IC50 (PIM-2) [nM] | IC50 (PIM-3) [nM] | EC50 [1] [nM] | further results
1 | CN[C@@H]1C[C@H]2O[C@@](C)([C@@H]1OC)n1c3ccccc3c3c4c(c5c6ccccc6n2c5c31)C(=O)NC4 [Staurosporine] | – | – | – | – | – | – | – | – | IC50 (BT-474): 76.6 nM; IC50 (HCC1143): 11 nM; IC50 (T-47D): 219 nM; IC50 (KG-1): 23.2 nM; IC50 (OCI-M1): 48.4 nM
2 | O=C(NOC[C@H](O)CO)c1ccc(F)c(F)c1Nc1ccc(I)cc1F [Merdametinib, merdametinib] | 0.55 | ++ | 0.038 | ++++ | – | – | – | – | C.I. (combination index) (HT29): 0.62; Synergy (HT29): ++
3 | CN1CCOc2c1c(N[C@H]1CC[C@@](C)(O)CC1)nn1c(-c3ccc(F)c(C(F)(F)F)c3)nnc21 [Example 2, 4-[3-(4-Fluoro-3-trifluoromethyl-phenyl)-6-methyl-7,8-dihydro-6H-9-oxa-1,2,3a,4,6-pentaaza-cyclopenta[a]naphthalen-5-ylamino]-1-methyl-cyclohexanol] | – | – | – | – | < 1 | 1 to 5 | 1 to 5 | 7.11 | –
4 | CS(=O)(=O)CCNCc1ccc(-c2ccc3ncnc(Nc4ccc(OCc5cccc(F)c5)c(Cl)c4)c3c2)o1 [Lapatinib, lapatinib] | 0.52 | ++ | – | – | – | – | – | – | C.I. (combination index) (A549): 0.47; Synergy (A549): ++; C.I. (combination index) (HCT116): 0.51; Synergy (HCT116): ++; C.I. (combination index) (Jeko-1): 0.70; Synergy (Jeko-1): ++; C.I. (combination index) (T47D): 0.27; Synergy (T47D): +++
5 | CC1(O)CCC(Nc2nn3c(-c4cccc(OC(F)(F)F)c4)nnc3c3c2CCCO3)CC1 (centres unmarked) [Example 3, 1-Methyl-4-[3-(3-trifluoromethoxy-phenyl)-7,8-dihydro-6H-9-oxa-1,2,3a,4-tetraaza-cyclopenta[a]naphthalen-5-ylamino]-cyclohexanol] | – | – | – | – | < 1 | 5 to 10 | 1 to 5 | 4.15 | –
6 | CS(=O)(=O)N1CCN(Cc2cc3nc(-c4cccc5[nH]ncc45)nc(N4CCOCC4)c3s2)CC1 [Pictisilib, pictisilib] | 0.24 | +++ | 0.54 | ++ | – | – | – | – | C.I. (combination index) (U87MG): 0.46; Synergy (U87MG): ++
